Data: patent US7781421B2, “Neuroactive 13, 24-cyclo-18, 21-dinorcholanes and structurally related pentacyclic steriods” (Washington University, priority 2003, dated 2010)
Read-outs that look alike come from different tables or passages of the source.

Assays:
[1] = target: T1, rat α1β2γ2 GABAA Receptor (Rattus norvegicus, UniProt P18508+P62813+P63138, INS375LLRMFSFK); assay: Xenopus oocyte two-electrode voltage-clamp electrophysiology; type: cell-based; settings: for Oocyte electrophysiology, ratio of currents in presence/absence of compound, 0.1 μM: 0.1 μM compound co-applied with 2 μM GABA; for Oocyte electrophysiology, ratio of currents in presence/absence of compound, 0.1 μM / Oocyte electrophysiology, ratio of currents in presence/absence of compound, 1 μM / Oocyte electrophysiology, ratio of currents in presence/absence of compound, 10 μM: −70 mV; for Oocyte electrophysiology, ratio of currents in presence/absence of compound, 1 μM: 1 μM compound co-applied with 2 μM GABA; for Oocyte electrophysiology, ratio of currents in presence/absence of compound, 10 μM: 10 μM compound co-applied with 2 μM GABA; for Gating (10 μM), ratio of compound only current/2 μM GABA current: direct current gated by 10 μM compound in the absence of GABA
T1 construct: from linearized pBluescript vectors containing receptor coding regions; expressed in transfected cells; host or cells: Xenopus laevis oocytes injected with in vitro transcribed capped mRNA
Summary of the method: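 Oocytes injected with rat α1, β2, γ2L mRNA, voltage-clamped at −70 mV 2-5 days later in ND96. Compounds co-applied with 2 μM GABA for 20 s; peak current ratio with/without compound, n≥4 oocytes. (G): current from 10 μM compound alone, as ratio to 2 μM GABA current.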

[2] = target: GABAA receptor ([35S]-TBPS binding site, rat brain cortical membranes); assay: Displacement of [35S]-TBPS binding, rat brain cortical membranes; settings: 5 μM GABA, 2 nM [35S]-TBPS; ± standard error of the means
Summary of the method: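 Rat cortical P2 membranes (0.5 mg/mL protein) incubated 2 h at room temperature with 2 nM [35S]-TBPS, 5 μM GABA and steroid (1 nM–10 μM) in 200 mM NaCl/50 mM potassium phosphate, pH 7.4. Filter-bound radioactivity counted; IC50 from Hill equation fit, triplicate points.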

[3] = system: Xenopus laevis tadpoles; assay: Tadpole loss of righting (LRR) and swimming (LSR) reflexes; type: in vivo; settings: 3 h equilibration at room temperature; for EC50: read-out: LSR EC50 (loss of swimming response)
Summary of the method: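 Groups of 10 early prelimb-bud Xenopus laevis tadpoles were held for 3 h at room temperature in oxygenated Ringer's containing compound (DMSO ≤0.1%). Loss of righting was scored as failure to right within 5 sec after flipping, and loss of swimming as failure to swim when touched. EC50 came from a Hill equation fit.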

T1 sequence (P62813 28-455, stated change not applied): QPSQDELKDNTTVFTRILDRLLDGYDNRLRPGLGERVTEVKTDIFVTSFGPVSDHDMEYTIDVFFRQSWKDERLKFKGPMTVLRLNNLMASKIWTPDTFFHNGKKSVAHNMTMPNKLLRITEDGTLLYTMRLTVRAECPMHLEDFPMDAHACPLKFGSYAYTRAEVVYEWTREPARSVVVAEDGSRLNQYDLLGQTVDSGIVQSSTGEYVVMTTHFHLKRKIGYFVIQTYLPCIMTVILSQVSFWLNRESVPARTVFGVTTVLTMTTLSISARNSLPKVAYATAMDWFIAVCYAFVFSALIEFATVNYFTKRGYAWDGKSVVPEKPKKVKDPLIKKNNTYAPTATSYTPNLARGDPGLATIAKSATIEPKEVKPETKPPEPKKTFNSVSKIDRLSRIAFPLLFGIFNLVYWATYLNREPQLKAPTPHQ
T1 sequence (P63138 26-474, stated change not applied): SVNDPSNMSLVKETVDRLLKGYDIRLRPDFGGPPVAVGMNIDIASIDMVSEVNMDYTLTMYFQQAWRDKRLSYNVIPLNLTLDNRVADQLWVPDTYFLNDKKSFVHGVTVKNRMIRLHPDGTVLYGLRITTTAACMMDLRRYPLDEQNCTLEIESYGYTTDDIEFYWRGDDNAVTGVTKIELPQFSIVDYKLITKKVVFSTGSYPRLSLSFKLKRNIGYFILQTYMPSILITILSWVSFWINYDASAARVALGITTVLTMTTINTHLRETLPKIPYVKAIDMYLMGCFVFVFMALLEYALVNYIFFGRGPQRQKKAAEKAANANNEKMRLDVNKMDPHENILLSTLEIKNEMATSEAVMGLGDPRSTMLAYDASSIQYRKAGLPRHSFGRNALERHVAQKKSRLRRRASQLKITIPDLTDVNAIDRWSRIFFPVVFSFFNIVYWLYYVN
T1 sequence (P18508 with tags, fused parts or gaps INS375LLRMFSFK): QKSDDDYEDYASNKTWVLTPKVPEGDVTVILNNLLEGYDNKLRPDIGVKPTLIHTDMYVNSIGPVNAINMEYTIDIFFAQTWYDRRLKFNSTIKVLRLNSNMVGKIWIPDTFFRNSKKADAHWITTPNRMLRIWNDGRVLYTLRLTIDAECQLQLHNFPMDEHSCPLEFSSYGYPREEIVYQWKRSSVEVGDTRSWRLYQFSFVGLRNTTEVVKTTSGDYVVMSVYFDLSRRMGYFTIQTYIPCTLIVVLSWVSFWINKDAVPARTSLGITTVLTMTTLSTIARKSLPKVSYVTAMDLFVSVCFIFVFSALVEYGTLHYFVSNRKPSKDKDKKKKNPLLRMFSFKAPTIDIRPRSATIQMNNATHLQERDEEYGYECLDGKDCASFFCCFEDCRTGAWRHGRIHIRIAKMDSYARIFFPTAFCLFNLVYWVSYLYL

Compound	Oocyte electrophysiology, ratio of currents in presence/absence of compound, 0.1 μM [1]	Oocyte electrophysiology, ratio of currents in presence/absence of compound, 1 μM [1]	Oocyte electrophysiology, ratio of currents in presence/absence of compound, 10 μM [1]	Gating (10 μM), ratio of compound only current/2 μM GABA current [1]	melting point [°C]	IC50 [2] [nM]	LRR ED50 (loss of righting response) [3]	EC50 ([3]; Xenopus laevis, 3 h) [nM]	LSR EC50 (loss of swimming response) [3]	EC50 [3] [nM]
CC12CCC(O)CC1CCC1C2CCC23C=CC(=O)CC2CCC13 (stereo not drawn) [Compound 30a, (3α,5α)-3-Hydroxy-13,24-Cyclo-18,21-dinorchol-23-en-22-one]	1.12 ± 0.08	1.54 ± 0.30	5.07 ± 0.98	−0.04 ± 0.05	168 to 170	1260 ± 100	730 ± 160 nM	5480 ± 90	–	–
CC12CCC(O)CC1CCC1C2CCC23CCC=CC2CCC13 (stereo not drawn) [Compound 13a, (3α,5α)-13,24-Cyclo-18,21-dinorchol-20(22)-en-3-ol]	1.53 ± 0.45	2.12 ± 0.40	2.68 ± 0.42	−0.32 ± 0.15	169 to 170	569 ± 28	>10000 nM	–	None @ 10	–
C[C@]12CC[C@@H](O)C[C@@H]1CCC1C3CC[C@@H]4C(C#N)=CCC[C@]34CCC12 (stereo partly drawn) [Compound 57, (3α,5α)-3-Hydroxy-13,24-cyclo-18,21-dinorchol-20(22)-ene-20-carbonitrile]	0.91 ± 0.03	0.96 ± 0.04	3.18 ± 0.24	0.01 ± 0.02	193 to 195	433 ± 30	420 nM	–	None @ 10	–
COC1CCCC23CCC4C(CCC5CC(O)CCC54C)C2CCC13 [Compound 70, (3α,5α,20R)-20-Methoxy-13,24-cyclo-18,21-dinorcholan-3-ol]	0.74 ± 0.01	0.87 ± 0.02	1.02 ± 0.03	0.00 ± 0.00	200 to 202	868 ± 78	>10000 nM	–	None @ 10	–
CC12CCC(O)CC1CCC1C2CCC23CC=CC(=O)C2CCC13 (stereo not drawn) [Compound 11b, (3α, 5β)-3-Hydroxy-13,24-cyclo-18,21-dinorchol-22-en-20-one]	1.07 ± 0.17	1.17 ± 0.11	2.34 ± 0.37	0.11 ± 0.04	253 to 254	1570	2560 ± 1390 nM	8950 ± 10	–	–
CC12CCC(O)CC1CCC1C2CCC23CC(=O)C=CC2CCC13 (stereo not drawn) [Compound 22c, (3α,5β)-3-Hydroxy-13,24-cyclo-18,21-dinorchol-20(22)-en-23-one]	1.07 ± 0.10	1.83 ± 0.25	4.50 ± 0.46	−0.02 ± 0.01	209 to 211	268 ± 43	1050 ± 0 nM	–	–	2720 ± 10
C[C@]12CC[C@@H](O)C[C@@H]1CCC1C3CCC4CCC(=O)C[C@@]43CCC12 (stereo partly drawn) [Compound 4a, (3α,5α)-3-Hydroxy-13,24-cyclo-18,21-dinorcholan-23-one]	1.39 ± 0.38	1.64 ± 0.15	6.49 ± 0.59	0.32 ± 0.01	185 to 186	334 ± 17	1120 ± 360 nM	3580 ± 1080	–	–
COC1CCCC23CCC4C(CCC5CC(O)CCC54C)C2CCC13 [Compound 69, (3α,5α,20S)-20-Methoxy-13,24-cyclo-18,21-dinorcholan-3-ol]	0.90 ± 0.04	1.26 ± 0.09	1.72 ± 0.28	0.00 ± 0.00	182 to 183	353 ± 38	None @ 10	–	None @ 10	–
CC12CCC(O)CC1CCC1C2CCC23CC4OC4C(=O)C2CCC13 [Compound 19b, (3α,5α,22R,23R)-22,23-Epoxy-3-hydroxy-13,24-cyclo-18,21-dinorcholan-20-one]	1.13 ± 0.02	2.11 ± 0.26	5.47 ± 0.62	0.21 ± 0.02	194 to 195	313 ± 18	960 ± 290 nM	–	–	10000
C[C@]12CC[C@@H](O)C[C@H]1CCC1C3CC[C@@H]4C(=O)CCC[C@]34CCC12 (stereo partly drawn) [Compound 2b, (3α,5β)-3-Hydroxy-13,24-cyclo-18,21-dinorcholan-20-one]	0.93 ± 0.06	1.12 ± 0.14	1.51 ± 0.13	−0.25 ± 0.21	220 to 222	1780	940 ± 550 nM	5480 ± 80	–	–
CC12CCC(O)CC1CCC1C2CCC23CCC(=CC#N)C2CCC13 (stereo not drawn) [Compound 97, (3α,5α,20Z)-3-Hydroxy-18,21-cyclopregnan-20-ylideneacetonitrile]	0.88 ± 0.07	0.87 ± 0.15	1.10 ± 0.08	−0.02 ± 0.06	226 to 228	17200	>10000 nM	–	None @ 10	–
